Laboratory results taken from patent publication US8318943B1, “Sorbitol/dexlansoprazole co-crystals and method for making same” (Takeda Pharmaceuticals U.S.A., Inc., priority 2010, dated 2012).
≈ marks a conversion by molar mass, not a printed value. Like-named read-outs stand apart in the source and are kept apart here. Marks after values point to notes of the source that are not given here.

What was measured:
[1] = Approximate solubility tests in selected solvents; assay type: physicochemical; details: organic solvent or mixture, read-out: Solubility [S, mg/ml]
Excerpt: A sample of dexlansoprazole sesquihydrate was characterized by FT-Raman spectroscopy, XRPD, ^1H-NMR and approximate solubility tests.
Accordingly, ethanol, ethyl acetate, acetonitrile, and THF were chosen as solvents for the co-crystal screening.

physchem = details: thermodynamic from solid
Procedure: (§2) The approximate solubilities of the sorbitol co-crystal former were estimated at 60° C. and of the 1:1 dexlansoprazole-sorbitol co-crystal at 40° C. and 10° C. […] The solubility values presented are intended to be regarded as rough estimates and are to be used solely for the design of crystallization experiments. All solvent mixtures are listed as ratios by volume (v/v).
(§3) The solubility values presented are intended to be regarded as rough estimates and are to be used solely for the design of crystallization experiments. All solvent mixtures are listed as ratios by volume (v/v).

[2] = cited from earlier work
[3] = Aqueous solubility, 24 h equilibration, HPLC of filtrate; assay type: physicochemical
Procedure: (§1) HPLC was carried out in a TSP instrument with a P4000 pump, an AS3000 autosampler, an SCM1000 degasser, a UV3000 detector, and PC1000 Version 4.1 software.
The pH of the corresponding saturated solution was 6.1. […] This may be due to chemical instability of dexlansoprazole in the solution environment.

[4] = Kinetic solubility experiment in water; assay type: physicochemical
Procedure: as §1
A further experiment to evaluate the kinetic solubility was carried out. The maximum was reached already after 15 minutes and that the concentration in the solution remained constant for the duration of the experiment.

[5] = Dynamic vapor sorption (DVS), hygroscopicity; assay type: physicochemical; details: for DVS weight gain at 85% relative humidity: 85% r.h.; for FT-Raman post-DVS compared with pre-DVS/reference (form change): after DVS cycle
Procedure: DVS was carried out in a Surface Measurement System DVS-1. The sample was placed on a platinum holder on top of a microbalance and allowed to equilibrate for 2 hours at 50% r.h. before starting the pre-defined humidity program: 50→95% r.h. (5%/h); 5 hours at 95% r.h., 95→0% r.h. (5%/h); 5 h at 0% r.h., then 0→50% r.h. (5%/h); and 2 hours at 50% r.h.
The hygroscopicity was classified based on the mass gain at 85% r.h. relative to the initial mass as follows: deliquescent (sufficient water adsorbed to form a liquid), very hygroscopic (mass increase of ≧15%), hygroscopic (mass increase <15% but ≧2%), slightly hygroscopic (mass increase <2% but ≧0.2%), or non-hygroscopic (mass increase <0.2%).
In order to examine the behavior of SP134-SBT-P26 in the presence of variable water vapor pressure, the sample was analyzed by isothermal DVS at 25° C. […] The sample was conditioned at 50% r.h. before starting a pre-defined humidity program with a scanning rate of 5% r.h. change per hour. Below 50% r.h. a small but continuous mass loss of the sample is observed (˜0.07%). This mass loss is in good accordance to the results of the TG-FTIR-measurement and Karl Fischer water content determination.
In order to examine the behavior of SP134-SBT-P27 in the presence of variable water vapor pressure, the sample was analyzed by isothermal DVS at 25° C. The sample was conditioned at 50% r.h. before starting a pre-defined humidity program with a scanning rate of 5% r.h. change per hour. Below 50% r.h. a small but continuous mass loss of the sample is observed (˜0.06%). This mass loss is in good accordance to the results of the TG-FTIR-measurement and Karl Fischer water content determination.

[6] = Stability of the co-crystal as a solid and in water or solution; details: for Stability in water for 24 hours: 25° C., disintegration into its components
Procedure: Solubility was determined by adding approximately 0.5 mL of doubly distilled water to 19.1 mg of the substance to be measured. The resulting suspension was equilibrated in a temperature-controlled Eppendorf Thermomixer Comfort Shaker for 24 hours at 25° C. at a shaking rate of 500 rpm. The solid phase was recovered by filter centrifugation (0.1-μm PVDF membrane) and examined by FT-Raman spectroscopy. Concentrations in the filtrate (i.e., saturated solutions) or diluted solutions thereof were determined using the HPLC method disclosed herein. The pH of the saturated solution was determined with a Metrohm 713 pH meter.

[7] = Approximate solubility by manual dilution combined with visual observation; details: for solubility / Solubility (mg/mL): room temperature
Procedure: as §2, §3

[8] = 1:1 EtOAc/DMSO (v/v), organic solvent or mixture
[9] = 1:1 EtOH/H2O (v/v), aqueous with cosolvent or surfactant or cyclodextrin
[10] = 2:1 EtOH/H2O + 5 vol.-% NH3 solution, aqueous with cosolvent or surfactant or cyclodextrin
[11] = 2:1 MeOH/H2O + 5 vol.-% NH3 solution, aqueous with cosolvent or surfactant or cyclodextrin
[12] = 2:1 MeOH/borax buffer, pH 9, aqueous with cosolvent or surfactant or cyclodextrin
[13] = 9:1 EtOAc/DMSO (v/v), organic solvent or mixture
[14] = DMSO, organic solvent or mixture
[15] = EtOAc, organic solvent or mixture
[16] = MeOH, organic solvent or mixture
[17] = isothermal DVS at 25° C., listed as SP134-SBT-P27

## Cc1c(OCC(F)(F)F)ccnc1C[S@@+]([O-])c1nc2ccccc2[nH]1 [SP134-FD-P1, dexlansoprazole sesquihydrate, reference compound]
[1]; MEK
  solubility: ~226 mg/mL
[1]; THF
  solubility: ~228 mg/mL
[1]; acetone
  solubility: ~230 mg/mL
[1]; acetonitrile
  solubility: ~210 mg/mL
[1]; ethanol
  solubility: ~228 mg/mL
[1]; ethyl acetate
  solubility: ~204 mg/mL
[1]; methanol
  solubility: ~204 mg/mL
physchem; [8]
  solubility: > 200 mg/mL
physchem; [9]
  solubility: ~30 mg/mL
physchem; [10]
  solubility: 100 to 200 mg/mL
physchem; [11]
  solubility: 100 to 200 mg/mL
physchem; [12]
  solubility: 90 to 190 mg/mL
physchem; [13]
  solubility: > 200 mg/mL
physchem; [14]
  solubility: > 200 mg/mL
physchem; [15]
  solubility: > 20 mg/mL
physchem; [16]
  solubility: > 200 mg/mL
physchem; ethanol, organic solvent or mixture
  solubility: > 200 mg/mL
physchem; water
  solubility: < 1 mg/mL

## Cc1c(OCC(F)(F)F)ccnc1C[S@@+]([O-])c1nc2ccccc2[nH]1 [Dexlansoprazole]
[2]; acetonitrile
  Descriptive solubility: soluble
[2]; dichloromethane
  Descriptive solubility: freely soluble
[2]; dimethyl formamide
  Descriptive solubility: freely soluble
[2]; ethanol
  Descriptive solubility: freely soluble
[2]; ether
  Descriptive solubility: slightly soluble
[2]; ethyl acetate
  Descriptive solubility: freely soluble
[2]; hexane
  Descriptive solubility: substantially insoluble
[2]; light
  Stability when exposed to light: stable
[2]; methanol
  Descriptive solubility: freely soluble
[2]; neutral and alkaline vs acidic conditions
  Stability depending on pH conditions: more stable in neutral and alkaline conditions than acidic conditions
[2]; water
  Descriptive solubility: very slightly soluble

## Cc1c(OCC(F)(F)F)ccnc1C[S+]([O-])c1nc2ccccc2[nH]1.Cc1c(OCC(F)(F)F)ccnc1C[S+]([O-])c1nc2ccccc2[nH]1.OCC(O)C(O)C(O)C(O)CO.OCC(O)C(O)C(O)C(O)CO.OCC(O)C(O)C(O)C(O)CO (stereo not shown) [SP134-SBT-P7]
[3]; 24 hours equilibration at 22° C., solid residue was free drug, so value corresponds to free drug
  Solubility in water: 0.18 mg/mL
[3]; water, 24 hours equilibration
  pH of the saturated solution: 6.1
[4]; after 15 minutes
  Solubility as a function of time, constant value reached: 0.25 mg/mL
[4]; 15 min
  Kinetic solubility in water: 0.25 mg dexlansoprazole per ml
[4]; 30 min
  Kinetic solubility in water: 0.26 mg dexlansoprazole per ml
[4]; 1 hour
  Kinetic solubility in water: 0.26 mg dexlansoprazole per ml
[4]; 2 hour
  Kinetic solubility in water: 0.24 mg dexlansoprazole per ml
[4]; 4 hrs.
  Kinetic solubility in water: 0.27 mg dexlansoprazole per ml
[4]; 8 hrs.
  Kinetic solubility in water: 0.27 mg dexlansoprazole per ml
[5]
  Reversibility of DVS weight gain and loss: reversible
  DVS weight gain at 85% relative humidity: (~70-75% r.h.), gain of ~7 wt.-% at 85% r.h.;
  FT-Raman post-DVS compared with pre-DVS/reference (form change): no significant changes
[5]; 0% r.h.
  DVS weight loss at 0% r.h. relative to the starting weight: < 1 wt.-%
[5]; 50% r.h. after lowering from 95% r.h.
  DVS weight increase at 50% r.h. on desorption relative to the starting weight: ~1 wt. %
[5]; 70-75% r.h.
  DVS step in weight gain: ~4 wt.-%
[5]; listed as sorbitol co-crystal
  DVS weight gain at 85% relative humidity: ~7 wt.-%
[5]; mass gain at 85% r.h. relative to the initial mass, listed as sorbitol co-crystal
  Hygroscopicity class: hygroscopic (mass increase <15% but ≧2%)
[5]; r.h. raised from 50% to 95%
  DVS weight gain at 95% relative humidity: 20 wt.-%
[6]; solid
  Stability as a solid: stable
[6]
  Stability in water for 24 hours: solid form not stable in H2O for 24 h, disintegrates
[6]; listed as dexlansoprazole/sorbitol co-crystal
  Stability in water for 24 hours: not stable
[7]; 1:1 EtOAc/DMSO
  solubility: >200 mg/mL
[7]; 1:1 EtOH/H2O
  Solubility (mg/mL): 50-100^a mg/mL
[7]; 2:1 EtOH/H2O + 5 vol.-% NH3 solution
  solubility: 60 to 100 mg/mL
[7]; 2:1 MeOH/H2O + 5 vol.-% NH3 solution
  solubility: 60 to 100 mg/mL
[7]; 2:1 MeOH/borax buffer (pH = 9.0)
  Solubility (mg/mL): 45-65^a mg/mL
[7]; 9:1 EtOAc/DMSO
  solubility: ~10 mg/mL
[7]; EtOAc
  solubility: <1 mg/mL
[7]; H2O
  Solubility (mg/mL): 0.25^a mg/mL

## OC[C@@H](O)[C@@H](O)[C@H](O)[C@@H](O)CO [Sorbitol, D-sorbitol]
physchem; 1:1 DMSO/EtOH (v/v), 60 °C, organic solvent or mixture
  solubility: > 102 mg/mL
physchem; [8]
  solubility: 125 to 250 mg/mL (≈ 686 to 1370 mM)
physchem; 1:1 EtOAc/EtOH (v/v), 60 °C, organic solvent or mixture
  solubility: 3 mg/mL (≈ 16.5 mM)
physchem; [9]
  solubility: ~160 mg/mL (≈ 878 mM)
physchem; 1:2 EtOAc/EtOH (v/v), 60 °C, organic solvent or mixture
  solubility: 6 mg/mL (≈ 32.9 mM)
physchem; 1:3 DMSO/EtOH (v/v), 60 °C, organic solvent or mixture
  solubility: 54 to 108 mg/mL (≈ 296 to 593 mM)
physchem; 1:3 EtOAc/EtOH (v/v), 60 °C, organic solvent or mixture
  solubility: 10 mg/mL (≈ 54.9 mM)
physchem; 1:5 DMSO/EtOH (v/v), 60 °C, organic solvent or mixture
  solubility: 39 to 59 mg/mL (≈ 214 to 324 mM)
physchem; 1:5 EtOAc/EtOH (v/v), 60 °C, organic solvent or mixture
  solubility: 11 mg/mL (≈ 60.4 mM)
physchem; [10]
  solubility: 125 to 250 mg/mL
physchem; [11]
  solubility: > 250 mg/mL
physchem; [12]
  solubility: > 250 mg/mL
physchem; [13]
  solubility: ~1 mg/mL (≈ 5.49 mM)
physchem; [14]
  solubility: > 200 mg/mL
physchem; [15]
  solubility: < 1 mg/mL
physchem; [16]
  solubility: ~13 mg/mL (≈ 71.4 mM)
physchem; water
  solubility: > 200 mg/mL

## Cc1c(OCC(F)(F)F)ccnc1C[S@@+]([O-])c1nc2ccccc2[nH]1.OC[C@@H](O)[C@@H](O)[C@H](O)[C@@H](O)CO [SP134-SBT-P26]
[5]
  FT-Raman post-DVS compared with pre-DVS/reference (form change): no phase transition
[5]; isothermal DVS at 25° C.
  DVS water uptake at about 85% r.h. relative to the mass at 0% r.h.: 0.12%
  DVS mass loss below 50% r.h.: ~0.07%
[5]; [17]
  DVS water uptake at about 85% r.h. relative to the mass at 0% r.h.: 0.08%
  DVS mass loss below 50% r.h.: ~0.06%
[5]; isothermal DVS at 25° C., water uptake at about 85% r.h. relative to the mass at 0% r.h.
  Hygroscopicity class: not hygroscopic
[7]; 1:3 DMSO/EtOH, 10° C.
  Approximate solubility: 14 to 16 mg/mL
[7]; 1:3 DMSO/EtOH, 40° C.
  Approximate solubility: 50 to 63 mg/mL
[7]; 1:4 DMSO/EtOH, 10° C.
  Approximate solubility: 11.5 to 12.5 mg/mL
[7]; 1:4 DMSO/EtOH, 40° C.
  Approximate solubility: >37 mg/mL
[7]; 1:5 DMSO/EtOH, 10° C.
  Approximate solubility: 9.3 to 9.8 mg/mL
[7]; 1:5 DMSO/EtOH, 40° C.
  Approximate solubility: 17 to 23 mg/mL
[7]; DMSO/EtOH, 40° C.
  Solubility relative to sorbitol and dexlansoprazole: less soluble than sorbitol and dexlansoprazole
